Reference: ChEMBL document CHEMBL5120916, “Structure-Activity Relationships and Antileukemia Effects of the Tricyclic Benzoic Acid FTO Inhibitors” (J Med Chem, 2022)
Values belong to the molecule of their own block, whether it stands above or below them. The source made the active and inactive calls. No cut-off for these calls is given here.

Experiments:
[1] = molecular target: T1, Alpha-ketoglutarate-dependent dioxygenase FTO (Homo sapiens, UniProt Q9C0B1); test: Inhibition of N-terminal His-tagged human FTO expressed in Escherichia coli BL21(DE3) by PAGE based assay
Target sequence in this assay (Q9C0B1 whole entry): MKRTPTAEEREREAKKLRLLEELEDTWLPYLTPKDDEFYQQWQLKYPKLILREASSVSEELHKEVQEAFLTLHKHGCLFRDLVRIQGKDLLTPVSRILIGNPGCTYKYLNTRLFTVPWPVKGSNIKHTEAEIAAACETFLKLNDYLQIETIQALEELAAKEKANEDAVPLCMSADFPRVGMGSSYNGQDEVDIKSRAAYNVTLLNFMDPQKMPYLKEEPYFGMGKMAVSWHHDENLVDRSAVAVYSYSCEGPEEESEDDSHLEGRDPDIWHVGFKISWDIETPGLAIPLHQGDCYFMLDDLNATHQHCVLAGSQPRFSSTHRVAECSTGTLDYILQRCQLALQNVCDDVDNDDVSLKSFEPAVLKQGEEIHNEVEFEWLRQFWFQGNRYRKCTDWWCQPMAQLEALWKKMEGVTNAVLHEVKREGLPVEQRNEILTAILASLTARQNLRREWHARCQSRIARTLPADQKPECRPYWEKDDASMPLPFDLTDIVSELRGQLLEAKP

NB-4 [2] = test: Antiproliferative activity against human NB-4 cells assessed as reduction in cell viability at 10 uM administered as single dose measured after 48 hrs by CCK-8 assay; type: functional, cell-based
MONO-MAC-6 [3] = test: Antiproliferative activity against human MONO-MAC-6 cells assessed as reduction in cell viability at 10 uM administered as single dose measured after 48 hrs by CCK-8 assay; type: functional, cell-based
[4] = molecular target: T1, Alpha-ketoglutarate-dependent dioxygenase FTO
Target sequence in this assay (Q9C0B1 whole entry, looked up): as the sequence (Q9C0B1 whole entry) above
Description: Binding affinity to N-terminal His-tagged human FTO expressed in Escherichia coli BL21(DE3) assessed as change in melting temperature at 1:5 protein to compound ratio by fluorescence based thermal shift assay

[5] = molecular target: T1, Alpha-ketoglutarate-dependent dioxygenase FTO; remark: listed apart in the source
Target sequence in this assay (Q9C0B1 whole entry, looked up): as the sequence (Q9C0B1 whole entry) above
Description: Binding affinity to N-terminal His-tagged human FTO expressed in Escherichia coli BL21(DE3) assessed as change in melting temperature at 1:20 protein to compound ratio by fluorescence based thermal shift assay

NB-4 [6] = test: Antiproliferative activity against human NB-4 cells assessed as reduction in cell viability measured after 48 hrs by CCK-8 assay; settings: NB-4, 48 h
MONO-MAC-6 [7] = test: Antiproliferative activity against human MONO-MAC-6 cells assessed as reduction in cell viability measured after 48 hrs by CCK-8 assay; settings: MONO-MAC-6, 48 h
THP-1 = test: Antiproliferative activity against human THP-1 cells assessed as reduction in cell viability measured after 48 hrs by CCK-8 assay; settings: THP-1, 48 h
HEL = test: Antiproliferative activity against HEL cells assessed as reduction in cell viability measured after 48 hrs by CCK-8 assay; settings: Homo sapiens
NB-4 [8] = test: Inhibition of colony formation in human NB-4 cells measured after 14 days by nitroblue tetrazolium chloride staining based soft agar assay; type: functional, cell-based; settings: dose 5-15 µM, time 14.0 day, DDE = dose-dependent effect
[9] = Acute toxicity in BALB/c mouse assessed as body weight loss at 20 mg/kg, ip administered once daily for 7 days; type: organism-based; settings: in vivo, 168 h, time 7 day
MONO-MAC-6 [10] = test: Antitumor activity against human MONO-MAC-6 cells xenografted in busulfan treated NSG mouse assessed as increase in animal survial rate at 20 mg/kg, ip administered once daily for 22 days; type: functional, organism-based; settings: time 22.0 day
[11] = Toxicity in busulfan treated NSG mouse xenografted with human MONO-MAC-6 cells assessed as reduction in body weight at 20 mg/kg, ip administered once daily for 22 days; type: organism-based; settings: in vivo, 528 h, time 22 day

SMILES: COc1cccc(Nc2c(Cl)cc(-c3c(C)noc3C)cc2Cl)c1C(=O)O
IC50 [1]: 2200 nM

SMILES: Cc1noc(C)c1-c1ccc(Nc2ccccc2C(=O)O)cc1
Activity (NB-4 [2]): Active
Activity (MONO-MAC-6 [3]): Active

SMILES: Cc1cc(-c2c(C)noc2C)cc(C)c1Nc1ccccc1C(=O)O
IC50 [1]: 1900 nM

SMILES: COc1cc(-c2c(C)noc2C)cc(OC)c1Nc1ccccc1C(=O)O
Activity (NB-4 [2]): Active
Activity (MONO-MAC-6 [3]): Active

SMILES: O=C(O)c1ccccc1Nc1c(Cl)cc(-c2cnoc2)cc1Cl
IC50 [1]: 1700 nM

SMILES: Cc1noc(C)c1-c1cc(Cl)c(Nc2ccc(F)cc2C(=O)O)c(Cl)c1
IC50 [1]: 1100 nM

SMILES: Cc1cc(-c2cc(Cl)c(Nc3ccccc3C(=O)O)c(Cl)c2)ccn1
IC50 [1]: 6500 nM

SMILES: CCc1cc(-c2c(C)noc2C)cc(CC)c1Nc1ccccc1C(=O)O
IC50 [1]: 1400 nM

SMILES: Cc1noc(C)c1-c1cc(F)c(Nc2ccccc2C(=O)O)c(Cl)c1
Activity (NB-4 [2]): Active
Activity (MONO-MAC-6 [3]): Active
IC50 (NB-4 [6]): 2100 nM
IC50 (MONO-MAC-6 [7]): 1900 nM
IC50 (THP-1): 7300 nM
IC50 (HEL): 7700 nM
inhibition (NB-4 [8]): Dde
Activity [9]: Non-Toxic
Activity (MONO-MAC-6 [10]): Active
Activity [11]: Toxic

Results, then the molecule that gave them:

IC50 [1]: 3400 nM
SMILES: Cc1noc(C)c1-c1cc(Cl)c(Nc2cc(F)c(F)cc2C(=O)O)c(Cl)c1

IC50 [1]: 7200 nM
SMILES: O=C(O)c1ccccc1Nc1c(Cl)cc(-c2ccn[nH]2)cc1Cl

IC50 [1]: 1600 nM
SMILES: Cc1noc(C)c1-c1cc(Cl)c(Nc2cccc(F)c2C(=O)O)c(Cl)c1

IC50 [1]: 1500 nM
ΔTm [4]: 0.5 °C
ΔTm [5]: 1.5 °C
SMILES: O=C(O)c1ccccc1Nc1c(Cl)cc(-c2ccncc2)cc1Cl

IC50 [1]: 2400 nM
SMILES: O=C(O)c1ccccc1Nc1c(Cl)cc(-c2cc(O)cc(O)c2)cc1Cl
